Test results reported in patent publication US10633389B2, “CARM1 inhibitors and uses thereof” (Epizyme, Inc., priority 2013, dated 2020).

Columns and labels:
human CARM1 (PRMT4) = human CARM1 (PRMT4) (Homo sapiens (Human), UniProt Q86X55); assay: CARM1 enzyme assay on peptide substrate (3H-SAM Flashplate); conditions: Biochemical potencies, read-out: Biochem IC50
Text: S-adenosylmethionine (SAM), S-adenosylhomocysteine (SAH), bicine, Tween20, dimethylsulfoxide (DMSO), bovine skin gelatin (BSG), sodium butyrate and Tris(2-carboxyethyl)phosphine hydrochloride solution (TCEP) were purchased from Sigma-Aldrich at the highest level of purity possible. ^3H-SAM was purchase from American Radiolabeled Chemicals with a specific activity of 80 Ci/mmol. 384-well streptavidin Flashplates were purchased from PerkinElmer.
Peptide representative of human histone H3 residues 16-30 was synthesized with an N-terminal linker-affinity tag motif and a C-terminal amide cap by 21st Century Biochemicals. […] The sequence was Biot-Ahx-[…]-amide and contained a monomethylated arginine at position 26 (SEQ ID NO.:1).
The gene sequence encoding isoform 1 containing a deletion of amino acids 539-561 was amplified subsequently and subcloned into pFastBacMam (Viva Biotech).
Recombinant baculovirus were generated according to Bac-to-Bac kit instructions (Life Technologies). Protein over-expression was accomplished by infecting exponentially growing HEK 293F cell culture at 1.3×10^6 cell/ml with virus (MOI=10) in the presence of 8 mM sodium butyrate. Infections were carried out at 37° C. for 48 hours, harvested by centrifugation, and stored at −80° C. for purification.
Expressed full-length human Flag- and His-tagged CARM1 protein was purified from cell paste by anti-flag M2 affinity chromatography with resin equilibrated with buffer containing 20 mM Tris, 150 mM NaC, 5% glycerol, pH 7.8. Column was washed with 500 mM NaCl in buffer A and Flag-CARM1-His was eluted with 200 ug/ml FLAG peptide in buffer A. Pooled fractions were dialyzed in 20 mM Tris, 150 mM NaCl, 5% glycerol and 1 mM DTT, pH 7.8.
The assays were all performed in a buffer consisting of 20 mM Bicine (pH=7.6), 1 mM TCEP, 0.005% BSG, and 0.002% Tween 20, prepared on the day of use. Compounds in 100% DMSO (1 ul) were spotted into a polypropylene 384-well V-bottom plates (Greiner) using a Platemate Plus outfitted with a 384-channel head (Thermo Scientific). DMSO (1 ul) was added to Columns 11, 12, 23, 24, rows A-H for the maximum signal control and 1 ul of SAH, a known product and inhibitor of CARM1, was added to columns 11, 12, 23, 24, rows I-P for the minimum signal control. A cocktail (40 ul) containing the CARM1 enzyme was added by Multidrop Combi (Thermo-Fisher). The compounds were allowed to incubate with CARM1 for 30 min at room temperature, then a cocktail (10 ul) containing ^3H-SAM and peptide was added to initiate the reaction (final volume=51 ul). The final concentrations of the components were as follows: CARM1 was 0.25 nM, ^3H-SAM was 30 nM, peptide was 250 nM, SAH in the minimum signal control wells was 1 mM, and the DMSO concentration was 2%. The assays were stopped by the addition of non-radiolabeled SAM (10 ul) to a final concentration of 300 uM, which dilutes the ^3H-SAM to a level where its incorporation into the peptide substrate is no longer detectable. 50 ul of the reaction in the 384-well polypropylene plate was then transferred to a 384-well Flashplate and the biotinylated peptides were allowed to bind to the streptavidin surface for at least 1 hour before being washed once with 0.1% Tween20 in a Biotek ELx405 plate washer. The plates were then read in a PerkinElmer TopCount plate reader to measure the quantity of ^3H-labeled peptide bound to the Flashplate surface, measured as disintegrations per minute (dpm) or alternatively, referred to as counts per minute (cpm).
The Hill Coefficient normally allowed to float but may also be fixed at 1 in a 3-parameter fit.

[1] = tested on: asymmetric di-methyl PABP1 in RKO cells; assay: RKO methylation assay, In Cell Western (ICW) for asymmetric di-methyl PABP1; type: cell-based; conditions: Homo sapiens, RKO, Cellular potencies, ICW PABP1me2a
In short: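 RKO cells treated with compound for 48 h at 37 °C, then fixed, permeabilized and immunostained for asymmetric di-methyl PABP1, with DRAQ5 as DNA stain. Infrared 700/800 nm signal ratio normalized to DMSO and 20 μM reference-compound controls; IC50 from triplicate wells.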

human CARM1 (PRMT4), sequence (Q86X55 other isoform, or with tags, fused parts or gaps isoform Q86X55-1): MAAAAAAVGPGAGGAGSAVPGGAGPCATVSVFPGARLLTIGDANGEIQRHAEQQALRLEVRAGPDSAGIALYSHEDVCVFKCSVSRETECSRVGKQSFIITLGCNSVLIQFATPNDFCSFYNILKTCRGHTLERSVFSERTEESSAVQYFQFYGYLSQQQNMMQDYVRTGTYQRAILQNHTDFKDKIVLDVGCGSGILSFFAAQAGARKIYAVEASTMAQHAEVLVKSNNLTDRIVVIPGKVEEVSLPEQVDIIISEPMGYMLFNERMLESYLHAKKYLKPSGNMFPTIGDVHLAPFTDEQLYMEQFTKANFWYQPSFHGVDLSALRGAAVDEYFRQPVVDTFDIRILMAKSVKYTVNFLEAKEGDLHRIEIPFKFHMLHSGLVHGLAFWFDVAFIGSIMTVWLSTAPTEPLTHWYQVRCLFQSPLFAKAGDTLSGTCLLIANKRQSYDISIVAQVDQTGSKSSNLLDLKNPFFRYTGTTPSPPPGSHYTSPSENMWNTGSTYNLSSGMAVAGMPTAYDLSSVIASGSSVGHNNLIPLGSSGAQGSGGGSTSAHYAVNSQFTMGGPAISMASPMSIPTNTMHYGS

IC50 (human CARM1 (PRMT4)) [µM]	IC50 [1] [µM]	SMILES
0.1 to 1	10 to 20	CNCC(O)COc1cccc(-c2nc(N[C@@H]3CCOC3)c(C)c(-c3c(C)ncnc3C)n2)c1 (some centres unmarked) [Example 460-1a]
0.1 to 1	10 to 20	CNCC(O)COc1cccc(-c2nc(-c3c(C)noc3C)cc(N(C)C(C)=O)n2)c1 (centres unmarked) [Example 64-1a]
0.1 to 1	10 to 20	CNCC(O)COc1cccc(-c2nc(N[C@@H]3CCOC3)c(C)c(N(CCC#N)C3CC3)n2)c1 (some centres unmarked) [Example 426-1a]
0.1 to 1	10 to 20	CNCC(O)COc1cccc(-c2nc(O)c(C)c(-c3c(C)noc3C)n2)c1 (centres unmarked) [Example 73-1a]
0.1 to 1	≥ 20	CNCC(O)COc1cccc(-c2nc(NCC(F)(F)F)cc(-c3ccc(S(C)(=O)=O)cc3)n2)c1 (centres unmarked) [Example 627-1a]
1 to 3	10 to 20	CNCC(O)COc1cccc(-c2nc(Nc3c(C)nn(C)c3C)cc(-c3c(C)noc3C)n2)c1 (centres unmarked) [Example 122-1a]
3 to 10	10 to 20	CNCC(O)COc1cccc(-c2nc(NC3CCOCC3)c(C)c(N(C3CCOCC3)C3CC3)n2)c1 (centres unmarked) [Example 607-1a]
1 to 3	10 to 20	CNCC(O)COc1cccc(-c2nc(-c3nc[nH]c3C)cc(N(C)C3CCOCC3)n2)c1 (centres unmarked) [Example 603-1a]
0.1 to 1	5 to 10	CNCC(O)COc1cccc(-c2nc(N3CCN(CC(F)F)CC3)cc(N(C)C3CCOCC3)n2)c1 (centres unmarked) [Example 518-1a]
0.1 to 1	10 to 20	CNCC(O)COc1cccc(-c2nc(N[C@@H]3CCOC3)c(C)c(-c3ccnnc3)n2)c1 (some centres unmarked) [Example 459-1a]
0.1 to 1	≥ 20	CNCC(O)COc1cccc(-c2nc(NCCCN3CCCC3=O)cc(-c3cc4ccccc4o3)n2)c1 (centres unmarked) [Example 649-1a]
0.1 to 1	10 to 20	CNCC(O)COc1cccc(-c2nc(N[C@H]3C[C@@H](O)C3)cc(N(C)C3CCOCC3)n2)c1 (some centres unmarked) [Example 599-1a]
0.1 to 1	10 to 20	CNCC(O)COc1cccc(-c2nc(N(C)c3cnc(C(F)(F)F)nc3)cc(N(C)C3CCOCC3)n2)c1 (centres unmarked) [Example 587-1a]
0.1 to 1	≥ 20	COC(=O)N1CC[C@H](Nc2nc(-c3cc(OC[C@H](O)CN(C)C)ccc3Cl)nc(-c3c(C)noc3C)c2C)C[C@@H]1C [Example 193-3]
0.1 to 1		CNCC(O)COc1cccc(-c2nc(NC3CCOCC3)cc(N(C)C)n2)c1 (centres unmarked) [Example 8-1]
0.1 to 1	10 to 20	CNCC(O)COc1cccc(-c2nc(C(=O)N(C)C3CCOCC3)cc(N(C)C3CCOCC3)n2)c1 (centres unmarked) [Example 602-1a]
0.1 to 1	≥ 20	CNCC(O)COc1ccc(C#N)c(-c2nc(NC3CCOCC3)c(C)c(-c3c(C)noc3C)n2)c1 (centres unmarked) [Example 166-3]
0.1 to 1	10 to 20	CNCC(O)COc1cccc(-c2nc(N3CCN(CC(F)F)[C@@H](C)C3)cc(N(C)C3CCOCC3)n2)c1 (some centres unmarked) [Example 595-1a]
0.1 to 1	10 to 20	CNCC(O)COc1cccc(-c2nc(N[C@@H]3CCOC3)c(C)c(N3CCN(C(C)=O)CC34CC4)n2)c1 (some centres unmarked) [Example 438-1a]
0.1 to 1	10 to 20	CNCC(O)COc1cccc(-c2nc(N[C@@H]3CCOC3)c(C)c(-c3ccnc(N(C)C)c3)n2)c1 (some centres unmarked) [Example 389-1a]

IC50 (human CARM1 (PRMT4)) [µM]	IC50 [1] [µM]	SMILES
0.1 to 1	5 to 10	CNCC(O)COc1cccc(-c2nc(N[C@@H]3CCOC3)c(C)c(-c3ccnc(OCCOC)c3)n2)c1 (some centres unmarked) [Example 406-1a]
1 to 3	10 to 20	CCN(c1nc(-c2cccc(OCC(O)CNC)c2)nc(NC2CCOCC2)c1C)C1CCOCC1 (centres unmarked) [Example 606-1a]
0.1 to 1	10 to 20	CNCC(O)COc1cccc(-c2nc(N[C@@H]3CCOC3)c(C)c(N3CCC(C)(O)CC3)n2)c1 (some centres unmarked) [Example 385-1a]
0.1 to 1	10 to 20	CNCC(O)COc1cccc(-c2nc(N[C@@H]3CC[C@@H](O)C3)cc(N(C)C3CCOCC3)n2)c1 (some centres unmarked) [Example 600-1a]
1 to 3	10 to 20	CNCC(O)COc1cccc(-c2nc(NC3CCOCC3)cc(N(C3CC3)[C@@H]3CCOC3)n2)c1 (some centres unmarked) [Example 372-1a]
0.1 to 1	10 to 20	CNCC(O)COc1cccc(-c2nccc(-c3c(C)noc3C)n2)c1 (centres unmarked) [Example 2-1a]
0.1 to 1	10 to 20	CNCC(O)COc1cccc(-c2nc(C(=O)N(C)CC3CCOCC3)cc(N(C)C3CCOCC3)n2)c1 (centres unmarked) [Example 592-1a]
0.1 to 1	5 to 10	CNCC(O)COc1cccc(-c2nc(C3CCN(S(C)(=O)=O)CC3)cc(N(C)C3CCOCC3)n2)c1 (centres unmarked) [Example 527-1a]
0.1 to 1	≥ 20	CNCC(O)COc1cccc(-c2nc(NC3CCOCC3)cc(-c3ccc(S(C)(=O)=O)cc3)n2)c1 (centres unmarked) [Example 656-1a]
0.1 to 1	10 to 20	CNCC(O)COc1cccc(-c2nc(N[C@@H]3CCOC3)c(C)c(N3CC[C@H](N(C)C(C)=O)C3)n2)c1 (some centres unmarked) [Example 430-1a]
0.1 to 1	10 to 20	CNCC(O)COc1cccc(-c2nc(N[C@@H]3CCOC3)c(C)c(-c3ccc(=O)[nH]c3)n2)c1 (some centres unmarked) [Example 409-1a]
0.1 to 1	≥ 20	CNCC(O)COc1cccc(-c2nc(NCCOC)cc(-c3ccc(C(F)(F)F)nc3)n2)c1 (centres unmarked) [Example 636-1a]
1 to 3	10 to 20	CCN(c1nc(-c2cccc(OCC(O)CNC)c2)nc(N2CCOCC2)c1C)[C@@H]1CCOC1 (some centres unmarked) [Example 375-1a]
0.1 to 1	< 5	CNCC(O)COc1cccc(-c2nc(N3CCCC4(CCOCC4)C3)cc(N(C)C3CCOCC3)n2)c1 (centres unmarked) [Example 494-1a]
0.1 to 1	10 to 20	CNCC(O)COc1cccc(-c2nc(N[C@H]3CCOC3)c(C)c(-c3ccncc3)n2)c1 (some centres unmarked) [Example 333-1a]
0.1 to 1	≥ 20	CNCC(O)COc1cccc(-c2nc(NCC3CCNCC3)cc(-c3ccncc3)n2)c1 (centres unmarked) [Example 662-1a]
0.1 to 1		CNCC(O)COc1cccc(-c2cc(C3CCOCC3)nc(N[C@H]3CCOC3)n2)c1 (some centres unmarked) [Example 10-2]
0.1 to 1		CNCC(O)COc1cccc(-c2nc(NC3CCOC3=O)cc(-c3c(C)noc3C)n2)c1 (centres unmarked) [Example 24-1a]
0.1 to 1		NCC(O)COc1cccc(-c2cc(N3CCOCC3)nc(N3CCOCC3)n2)c1 (centres unmarked) [Example 7-2]
